# Measurements taken from patent US5250542A, “Peripherally selective piperidine carboxylate opioid antagonists” (Eli Lilly and Company, priority 1992, dated 1993).
# Where a name gives a salt, the structure may show the parent alone. Read-outs that look alike come from different tables or passages of the source.
# Key:
# [1] = target: T1, peripheral opioid receptors (Mus musculus, UniProt P42866); assay: precipitated diarrhea in morphine-maintained mice (peripheral opioid activity) and comparison with the writhing test; assay type: in vivo; settings: for Ratio (AD50 mouse writhing test / ED50 mouse diarrhea test): higher ratio = greater relative antagonism of peripheral opioid receptors; for ED50: mouse, 0.5 h, morphine-maintained mice, antagonist subcutaneous or oral, 30 min observation
# T1 construct: Mice maintained (6 mice/cage) on 0.01M saccharin water with 1 g/1 morphine sulfate; from tissue; host or cells: living morphine-maintained mice (in vivo test; endogenous receptor)
# T1 sequence (P42866 whole entry): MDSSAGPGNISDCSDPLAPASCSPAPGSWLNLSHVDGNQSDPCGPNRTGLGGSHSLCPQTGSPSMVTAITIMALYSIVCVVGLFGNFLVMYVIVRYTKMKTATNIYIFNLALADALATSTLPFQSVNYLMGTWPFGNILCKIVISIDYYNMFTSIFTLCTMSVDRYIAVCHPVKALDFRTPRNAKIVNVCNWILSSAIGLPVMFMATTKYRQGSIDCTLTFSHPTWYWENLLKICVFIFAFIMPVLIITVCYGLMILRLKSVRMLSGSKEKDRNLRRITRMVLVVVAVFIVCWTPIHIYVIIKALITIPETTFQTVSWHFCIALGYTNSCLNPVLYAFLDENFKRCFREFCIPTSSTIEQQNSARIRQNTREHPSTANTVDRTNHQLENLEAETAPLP
# In short: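 Morphine-dependent mice (1 g/l morphine sulfate in drinking water ≥10 days, withdrawn 45 min before dosing) received antagonist subcutaneously or orally, 5 mice/dose. Diarrhea (and jumping) were scored over 30 min and doses lowered to find the diarrhea threshold. Peripheral selectivity was taken as writhing AD50 divided by diarrhea ED50.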
# [2] = target: T2, mu receptor (Rattus norvegicus, UniProt P33535); assay: opioid receptor binding assay, [3H] NAL (tritiated naloxone), mu receptor; design: species or system rat (Male Sprague Dawley), brain minus cerebellum
# T2 construct: rat whole brain minus cerebellum for mu was homogenized; from tissue; host or cells: brain of male Sprague Dawley rats, whole brain minus cerebellum, homogenate fraction
# T2 sequence (P33535 whole entry): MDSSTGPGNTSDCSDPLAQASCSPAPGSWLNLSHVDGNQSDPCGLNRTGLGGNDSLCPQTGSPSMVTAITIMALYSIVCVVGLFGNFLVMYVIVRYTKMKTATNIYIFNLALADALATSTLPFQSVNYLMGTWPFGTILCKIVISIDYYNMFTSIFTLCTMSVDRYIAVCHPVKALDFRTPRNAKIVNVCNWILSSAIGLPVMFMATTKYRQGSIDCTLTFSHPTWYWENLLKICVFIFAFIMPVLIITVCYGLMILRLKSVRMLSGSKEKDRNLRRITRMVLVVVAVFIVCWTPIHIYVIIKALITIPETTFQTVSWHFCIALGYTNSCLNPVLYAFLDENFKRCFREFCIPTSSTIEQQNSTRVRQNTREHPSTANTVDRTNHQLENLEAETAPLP
# In short: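 Displacement of [3H]naloxone was measured on rat whole brain minus cerebellum membranes, preincubated 20 min and incubated 20 min at 37° C, with filtration separating bound ligand. Ki was derived from IC50 and ligand KD. Percent displacement was also recorded at 10 nM and 100 nM test compound.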
# [3] = target: T3, opioid receptor (Mus musculus, UniProt P42866); assay: mouse writhing analgesis test: block of morphine-induced analgesia; assay type: in vivo, CF-1 male mice; design: unit not given here; settings: dose of antagonist that reduced the inhibition of writhing produced by 1.25 mg/kg morphine sulfate to 50%; subcutaneous, 20 min before acetic acid
# T3 construct: Five CF-1 male mice (Charles River, Portage, Mich.); from tissue; host or cells: living CF-1 male mice (in vivo test; endogenous receptor)
# T3 sequence (P42866 whole entry): as the sequence (P42866 whole entry) above
# In short: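 Male CF-1 mice (~20 g, fasted overnight, n=5) dosed subcutaneously 20 min before i.p. 0.6% acetic acid; writhes counted for 10 min starting 5 min post-injection. Antagonism measured as blockade of morphine-induced inhibition of writhing, percent versus vehicle controls; ED50 defined as 50% writhing inhibition.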
# [4] = 20 min, read-out: % displacement at 10 nM, 10 nM test compound, [3H] naloxone 0.5 nM
# [5] = 20 min, read-out: % displacement at 100 nM
# [6] = 20 min, read-out: % displacement at 10 nM
# [7] = 20 min, read-out: % displacement at 100 nM, 100 nM test compound, [3H] naloxone 0.5 nM
# [8] = 20 min, 10 nM test compound, [3H] naloxone 0.5 nM, read-out: % displacement at 10 nM
# [9] = 20 min, 100 nM test compound, [3H] naloxone 0.5 nM, read-out: % displacement at 100 nM
SMILES,Ratio (AD50 mouse writhing test / ED50 mouse diarrhea test) [1],ED50 [1] [mg/kg],Ki [2] [nM],"inhibition at 0.01 µM [2, 4] [%]","inhibition at 0.1 µM [2, 5] [%]",AD50 [3],"inhibition at 0.01 µM [2, 6] [%]","inhibition at 0.1 µM [2, 7] [%]","Ki ([2]; [3H] naloxone 0.5 nM, pH 7.4, 37° C., 20 min, read-out: Ki) [nM]","inhibition at 0.01 µM [2, 8] [%]","inhibition at 0.1 µM [2, 9] [%]"
"CCOC(=O)CCCNC(=O)C(CC1CCCCC1)CN1CC[C@@](C)(c2cccc(O)c2)[C@@H](C)C1 (stereo partly drawn) [Example 39, 4-[[3-[3,4-dimethyl-4-(3-hydroxyphenyl)-1-piperidinyl]-2-(cyclohexhymethyl)-1-oxopropyl]-amino]butanoic acid ethyl ester monohydrochloride]",18,0.66,3.75,91,98,11.9,,,,,
"C[C@H]1CN(CCC(C(=O)NCC(=O)O)C2CCCCC2)CC[C@@]1(C)c1cccc(O)c1 (relative stereo) [Example 27, 2-[[2-cyclohexyl-4-[4-(3-hydroxyphenyl)-3,4-dimethyl-1-piperidinyl]-1-oxobutyl]amino]-acetic acid monohydrate]",51,0.3,0.91,,,15.3,92,99,,,
"CCNC(=O)CCCNC(=O)C(CC1CCCCC1)CN1CC[C@@](C)(c2cccc(O)c2)[C@@H](C)C1 (stereo partly drawn) [Example 42, N-[4-(ethylamino)-4-oxobutyl]-3-[4-(3--hydroxyphenyl)-3,4-dimethyl-1-piperidinyl[-2-cyclohexyl-methylpropanamide monohydrate hydrochloride]",8,0.26,0.57,100,97,2.1,,,,,
"C[C@H]1CN(CC(Cc2ccccc2)C(=O)NCC(=O)O)CC[C@@]1(C)c1cccc(O)c1 (stereo partly drawn) [Example 44, 2-[[3-[4-(3-hydroxyphenyl)-3,4-dimethyl-1-piperidinyl]-1-oxo-2-(phenylmethyl)propyl]-amino]acetic acid monohydrate]",> 266,0.15,,,94,> 40,87,,0.89,,
C[C@H]1CN(CC(Cc2ccccc2)C(=O)NCC(=O)OCC(=O)N(C)C)CC[C@@]1(C)c1cccc(O)c1 (relative stereo) [Example 90],22,0.1,,,,2.2,,,,93,99
CNC(=O)COC(=O)CNC(=O)C(Cc1ccccc1)CN1CC[C@@](C)(c2cccc(O)c2)[C@@H](C)C1 (relative stereo) [Example 88],193,0.07,,,,13.5,,,,93,99
"C[C@H]1CN(CC(Cc2ccccc2)C(=O)NCC(=O)N(C)C)CC[C@@]1(C)c1cccc(O)c1 (stereo partly drawn) [Example 47, N,N-dimethyl-2-[[3-4-(3-hydroxyphenyl)-3,4-dimethyl-1-piperidinyl]-2-(phenylmethyl)-1-oxypropyl]amino]acetamide monohydrochloride monohydrate]",267,0.15,2.11,89,,40,,95,,,
C[C@H]1CN(CC(Cc2ccccc2)C(=O)NCC(=O)NCC(=O)NCc2ccccc2)CC[C@@]1(C)c1cccc(O)c1 (relative stereo) [Example 73],11,1.73,1.8,84,,20,,90,,,
"CCCNC(=O)CNC(=O)C(Cc1ccccc1)CN1CC[C@@](C)(c2cccc(O)c2)[C@@H](C)C1 (stereo partly drawn) [Example 49, N-2-propylamino-2-oxoethyl]-3-[4-(3-hydroxyphenyl)-3,4-dimethyl-1-piperidinyl]-2-phenylmethyl propanamide monohydrate hydrochloride]",61,0.1,0.54,98,,6.08,,100,,,
"CCOC(=O)C(Cc1ccccc1)CN1CC[C@@](C)(c2cccc(OC)c2)[C@@H](C)C1 (single isomer, unassigned) [Example 78B]",29,0.055,,,,1.6,,,,0,2
"CNC(=O)CCCNC(=O)C(CCN1CC[C@@](C)(c2cccc(O)c2)[C@@H](C)C1)C1CCCCC1 (relative stereo) [Example 24, N-methyl-4-[[4-[4-(3-hydroxyphenyl)-3,4-dimethyl-1-piperidinyl]-2-cyclohexyl-1-oxobutyl]amino]butanamide monohydrochloride monohydrate]",> 400,0.1,0.45,100,,> 40,,100,,,
"CCNC(=O)CCNC(=O)C(Cc1ccccc1)CN1CC[C@@](C)(c2cccc(O)c2)[C@@H](C)C1 (stereo partly drawn) [Example 60, N-(ethyl)-3-[[3-[4-(3-hydroxyphenyl)-3,4-dimethyl-1-piperidinyl]-2-(phenylmethyl)-1-oxopropyl]amino]propanamide monohydrochloride]",112,0.1,1.89,100,,11.2,,100,,,
"CNC(=O)CCCNC(=O)C(CC1CCCCC1)CN1CC[C@@](C)(c2cccc(O)c2)[C@@H](C)C1 (stereo partly drawn) [Example 41, N-[4-(methylamino)-4-oxobutyl]-3-[4-(3-hydroxyphenyl)-3,4-dimethyl-1-piperidinyl]-2-cyclohexylmethylpropanamide monohydrochloride]",26,0.17,0.39,100,,4.5,,100,,,
